Measurements published in US8207185B2, “CaMKKβ as a target for treating obesity” (Duke University, priority 2006, dated 2012).

Tests used:
NPY and AgRP mRNA = assay: Third-ventricle infusion of STO-609 in living mice: hypothalamic NPY and AgRP mRNA quantified by RT-PCR; assay type: in vivo; settings: 20 uM STO-609 by osmotic mini-pump, 0.5 ul/hr for 7 days, into third ventricle; versus NaOH vehicle; FIG. 1
Protocol: (§1) To test the effect of STO-609 on feeding behavior, we stereotaxically implanted cannula into the third ventricle of living mice and attached the cannula to osmotic min-pumps that distribute fluids at a rate of 0.5 ul/hr for 7 days. Half of the pumps contained 20 uM STO-609 whereas the other half contained the NaOH vehicle. We monitored body weight together with food and water intake daily for 7 days. Then the mice were sacrificed, hypothalami were removed, RNA extracted and the mRNAs encoding NPY and AgRP were quantified by RT-PCR. […] In addition, STO-609 decreased the total amount of food consumed over the 7 day period by 60% (FIG. 2, left panel) but had no effect on water consumption. In addition, whereas the WT mice gained body weight during the 7 day period (about 4% relative to the starting weight) the STO-609 treated mice lost weight (about 7% relative to the starting weight) (FIG. 2, right panel).

[1] = test system: feeding behavior of living mice; assay: Third-ventricle infusion of STO-609 in living mice: food intake, water intake and body weight over 7 days; assay type: in vivo; settings: 20 uM STO-609, 0.5 ul/hr for 7 days
Protocol: as §1

In the case of `O=C(O)c1ccc2c3c1cccc3c(=O)n1c3ccccc3nc21` [STO-609], the “AgRP mRNA in hypothalamic RNA” value (NPY and AgRP mRNA) is reported as “highly statistically significant decreases”, the “NPY mRNA in hypothalamic RNA” value (NPY and AgRP mRNA) is reported as “highly statistically significant decreases” and the “effect on water consumption” value [1] is reported as “no effect”. The “body weight lost relative to the starting weight” value ([1]; 7 day period, FIG. 2, right panel) was “about 7%” and the “decrease of total amount of food consumed over the 7 day period” value ([1]; FIG. 2, left panel) was 60%.
